Legend:
A431 cells = test: DMR primary profiles of known GPCR agonists in A431 cells (receptor panning, cluster analysis); assay type: cell-based, human; settings: each agonist at 10 micromolar, max-min of 40 picometer cutoff
Method: (§1) Cells were typically grown using ˜1 to 2×10^4 cells per well at passage 3 to 15 suspended in 50 μl of the corresponding culture medium in the biosensor microplate, and were cultured at 37° C. under air/5% CO2 for ˜1 day. Except for A431 cells which underwent one day (at least 14 hours) culture followed by one day (at least 14 hours) starvation in serum free medium, all other cells were directly assayed without starvation. The confluency for all cells at the time of assays was ˜95% to 100%.
An Epic® beta version wavelength interrogation system (Corning Inc., Corning, N.Y.) was used for whole cell sensing. This system consists of a temperature-control unit, an optical detection unit, and an on-board liquid handling unit with robotics. The detection unit is centered on integrated fiber optics, and enables kinetic measures of cellular responses with a time interval of ˜15 sec.
(§2) For biosensor cellular assays, molecule solutions were made by diluting the stored concentrated solutions with the HBSS (1× Hanks balanced salt solution, plus 20 mM Hepes, pH 7.1), and transferred into a 384well polypropylene molecule storage plate to prepare a molecule source plate. Both molecule and marker source plates were made separately when a two-step assay was performed. In parallel, the cells were washed twice with the HBSS and maintained in 30 μl of the HBSS to prepare a cell assay plate. Both the cell assay plate and the molecule and marker source plate(s) were then incubated in the hotel of the reader system. After ˜1 hr of incubation the baseline wavelengths of all biosensors in the cell assay microplate were recorded and normalized to zero. Afterwards, a 2 to 10 minute continuous recording was carried out to establish a baseline, and to ensure that the cells reached a steady state. Cellular responses were then triggered by pipetting 10 μl of the marker solutions into the cell assay plate using the on-board liquid handler.
All studies were carried out at a controlled temperature (28° C.). At least two independent sets of experiments, each with at least three replicates, were performed. […] A typical DMR signal of cells, as measured using Epic system, is a real time kinetic response which consists a baseline pre-stimulation (often normalized to zero), and a cellular response post stimulation.
To pan endogenous G protein-coupled receptors (GPCRs) that are functional in label-free biosensor cellular assays, a library of known GPCR agonists was made. A431 cells were grown to monolayer on the Epic® 384well biosensor cell culture compatible microplates and subject to overnight starvation. After replacing the cell medium with 1×HBSS buffer and reaching equilibrium within the Epic® system, the cells were stimulated with known GPCR agonists, each at 10 micromolar. The known adenylate cyclase activator forskolin was also included as a positive control for the cAMP-PKA pathway.
Pattern recognition and pattern matching can be used to visualize their relations. However, when the numbers of molecule biosensor primary profiles increase dramatically, it becomes more difficult to use conventional pattern recognition methods, such as supervised learning, to study the relations of the molecule primary indices. Clustering analysis has been widely and successfully used in gene expression and protein network analysis which often deals with large datasets. Thus, clustering analysis and its parameters were identified herein to categorize the molecule primary indices. Both Hierarchical and k-Means clustering methods were examined. […] Here a max-min of 40 picometer was used as a cutoff to filter the original data. This heat map was generated using the real responses of each GPCR agonist at a 1-min time interval post stimulation.

[1] = test system: 15 marker/4 cell line panel (A549, A431, HT29, HepG2 cells); test: Biosensor modulation indices against a 15 marker/4 cell line panel, Hierarchical Euclidean cluster analysis; assay type: cell-based; settings: 15 markers at EC100 in A549, A431, HT29, HepG2 cells; library of ~2000 compounds
Method: as §1, §2
To study the influence of molecules on a marker-induced response, a second stimulation with the marker at a fixed dose (typically at EC80 or EC 100) was applied. The resonant wavelengths of all biosensors in the microplate were normalized again to establish a second baseline, right before the second stimulation. The two stimulations were usually separated by ˜1 hr.
To further explore the potential of cluster analysis for label-free integrative pharmacology, a library of ˜2000 compounds were subject to label-free integrative pharmacology analysis against a 15 marker/4 cell line panel. The cell/marker panel consists of the A549 cell (the mitochondria KATP opener pinacidil, the TLR3 agonist poly(I:C), the protein kinase C activator PMA, the adenylate cyclase activator forskolin, the PAR2 agonist SLIGKV, and the histamine H1 receptor agonist histamine), A431 cells (the β2AR agonist epinephrine, the EGFR agonist EGF, the GPR109A agonist nicotinic acid, and the histamine H1 receptor agonist histamine), HT29 cells (the EGFR/HER2 agonist EGF, the neurotensin receptor NTS1/NTS3 agonist neurotensin, the IGF1 receptor IGF1, and the hERG activator mallotoxin), and the HepG2 cell (the TL9 agonist ODN2006). All molecules in the library were screened in four cell lines to produce a library of biosensor primary indices. In addition, all molecules in the library were also screened in the four cell lines against each respective marker at EC100 to produce a library of biosensor modulation indices. The modulation indices were generated by normalizing the marker DMR signal in the presence of a molecule to the marker DMR in the absence of a molecule. For each marker, one or two specific DMR events were used for normalization. For A549 cells, it is pinacidil (the N-DMR at 30 min; pinacidil), Poly(I:C) (the P-DMR at 50 min, poly(I:C)), PMA (the P-DMR at 50 min, PMA), SLIGKV (the P-DMR at 20 min, SLIGKV), forskolin (the P-DMR at 50 min, Forskolin), Histamine (the P-DMR at 10 min, His1; the P-DMR at 30 min, His2) (the bolded name was indicated in FIG. 6, the same is for the below). For A431 cells, it is epinephrine (the P-DMR at 50 min, Epi), nicotinic acid (the N-DMR at 3 min, NA), EGF (the P-DMR at 5 min, EGF1; the N-DMR at 40 min, EGF2), and histamine (the P-DMR at 3 min, His3).

β2-AR = biological target: T1, β2-AR (Homo sapiens, UniProt P07550); test: DMR assays of a panel of β2-AR ligands in quiescent A431 cells, multi-parameter and cluster analysis; assay type: cell-based; settings: for heat map classification of β2-AR agonist pharmacology based on DMR parameters: DMR parameters normalized to the epinephrine response; for saturating concentration for the DMR signal: FIG. 7
T1 construct: All of these receptors were endogenously expressed in A431 cells, as confirmed by quantitative RT-PCR; endogenous in cells; host or cells: quiescent (serum-starved) A431 cells
Method: as §1, §2
Label-free receptor assays allow a greater array of changes in the receptor to be detected. […] The heat map was generated using the Euclidean hierarchical cluster analysis, after all DMR parameters were normalized to the epinephrine response.

T1 sequence (P07550 whole entry): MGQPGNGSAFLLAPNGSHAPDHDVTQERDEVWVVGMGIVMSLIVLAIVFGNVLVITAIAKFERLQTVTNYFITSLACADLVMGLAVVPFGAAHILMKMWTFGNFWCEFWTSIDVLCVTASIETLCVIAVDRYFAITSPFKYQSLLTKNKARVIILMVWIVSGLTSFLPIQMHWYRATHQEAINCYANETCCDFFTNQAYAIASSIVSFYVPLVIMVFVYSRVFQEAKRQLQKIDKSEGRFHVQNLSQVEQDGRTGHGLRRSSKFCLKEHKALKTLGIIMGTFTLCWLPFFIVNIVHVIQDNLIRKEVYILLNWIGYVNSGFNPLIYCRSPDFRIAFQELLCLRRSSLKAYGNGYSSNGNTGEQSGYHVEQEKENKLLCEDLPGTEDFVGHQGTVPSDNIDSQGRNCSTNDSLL

## Nc1ncnc2c1ncn2[C@@H]1O[C@H](COP(=O)(O)OP(=O)(O)OP(=O)(O)O)[C@@H](O)[C@H]1O [ATP]
A431 cells
  cluster of the agonist-induced primary DMR signal (two dimensional Hierarchical clustering, heat map): belong to the same cluster

## OC[C@H]1O[C@@H](n2cnc3c(NC4CCCC4)nc(Cl)nc32)[C@H](O)[C@@H]1O [CCPA]
A431 cells
  cluster of the agonist-induced primary DMR signal (two dimensional Hierarchical clustering, heat map): belong to the same cluster

## CCNC(=O)[C@H]1O[C@@H](n2cnc3c(N)nc(NCCc4ccc(CCC(=O)O)cc4)nc32)[C@H](O)[C@@H]1O [CGS21680]
A431 cells
  cluster of the agonist-induced primary DMR signal (two dimensional Hierarchical clustering, heat map): belong to the same cluster

## CN(C)CCCN1c2ccccc2Sc2ccc(Cl)cc21 [Chlorpromazine]
[1]
  node cluster by biosensor modulation index (similarity to known anti-histamines): specific node cluster that consists of 8 compounds

## CNC(=O)[C@H]1O[C@@H](n2cnc3c(NCc4cccc(I)c4)ncnc32)[C@H](O)[C@@H]1O [IB-MECA]
A431 cells
  cluster of the agonist-induced primary DMR signal (two dimensional Hierarchical clustering, heat map): belong to the same cluster

## O=c1cc(N2CCNCC2)oc2c(-c3ccccc3)cccc12 [LY303511]
[1]
  node cluster by biosensor modulation index (similarity to known anti-histamines): can also be a histamine H1R or a H1R pathway antagonist

## O=c1ccn([C@@H]2O[C@H](COP(=O)(O)OP(=O)(O)OP(=O)(O)O)[C@@H](O)[C@H]2O)c(=O)[nH]1 [UTP]
A431 cells
  cluster of the agonist-induced primary DMR signal (two dimensional Hierarchical clustering, heat map): belong to the same cluster

## Nc1ncnc2c1ncn2[C@@H]1O[C@H](CO)[C@@H](O)[C@H]1O [adenosine]
A431 cells
  cluster of the agonist-induced primary DMR signal (two dimensional Hierarchical clustering, heat map): belong to the same cluster

## Oc1ccccc1O [catechol]
β2-AR
  amplitudes of the DMR signal: smaller amplitudes
  kinetics for the P-DMR event: faster kinetics
  transition time of the DMR signal: slightly slower transition time
  heat map classification of β2-AR agonist pharmacology based on DMR parameters: between the second and third group
  saturating concentration for the DMR signal: 500 µM

## NCCc1ccc(O)c(O)c1 [dopamine]
β2-AR
  heat map classification of β2-AR agonist pharmacology based on DMR parameters: partial agonists
  saturating concentration for the DMR signal: 32 µM

## CNC[C@H](O)c1ccc(O)c(O)c1 [epinephrine]
β2-AR
  amplitudes of the DMR signal: maximum amplitudes
  kinetics for the P-DMR event: slow kinetics
  transition time of the DMR signal: fast transition time
  heat map classification of β2-AR agonist pharmacology based on DMR parameters: full agonists and strong partial agonists
  saturating concentration for the DMR signal: 0.008 µM

## Fc1ccc(C(c2ccc(F)cc2)N2CCN(C/C=C/c3ccccc3)CC2)cc1 [flunarizine]
[1]
  node cluster by biosensor modulation index (similarity to known anti-histamines): specific node cluster that consists of 8 compounds

## CNCC(O)c1ccccc1 (centres unmarked) [halostachine]
β2-AR
  amplitudes of the DMR signal: smaller amplitudes
  kinetics for the P-DMR event: faster kinetics
  transition time of the DMR signal: slightly slower transition time
  heat map classification of β2-AR agonist pharmacology based on DMR parameters: partial agonists

## CN1CCC(=C2c3ccccc3CC(=O)c3sccc32)CC1 [ketotifen]
[1]
  node cluster by biosensor modulation index (similarity to known anti-histamines): specific node cluster that consists of 8 compounds

## C[C@@H]1CN([C@H]2CC[C@](C#N)(c3ccc(F)cc3)CC2)CC[C@]1(C(=O)O)c1ccccc1 [levocabastine]
[1]
  node cluster by biosensor modulation index (similarity to known anti-histamines): specific node cluster that consists of 8 compounds

## NC[C@H](O)c1ccc(O)c(O)c1 [norepinephrine]
β2-AR
  heat map classification of β2-AR agonist pharmacology based on DMR parameters: full agonists and strong partial agonists
  saturating concentration for the DMR signal: 0.1 µM

## CC(C)NCC(O)COc1cccc2[nH]ccc12 (centres unmarked) [pindolol]
β2-AR
  heat map classification of β2-AR agonist pharmacology based on DMR parameters: beta-blockers with weak partial agonism activity

## Cc1nc2n(c(=O)c1CCN1CCC(c3noc4cc(F)ccc34)CC1)CCCC2 [risperidone]
[1]
  node cluster by biosensor modulation index (similarity to known anti-histamines): specific node cluster that consists of 8 compounds

## O=C(NCCNCC(O)COc1ccc(O)cc1)N1CCOCC1 (centres unmarked) [xamoterol]
β2-AR
  heat map classification of β2-AR agonist pharmacology based on DMR parameters: between the second and third group
